The record followed here is EP1733731A1, “New uses of Glycerol derivatives in particular in cosmetics” (AGRO INDUSTRIE RECHERCHES ET DEVELOPPEMENTS (A.R.D.), priority 2005, dated 2006).

Molecules are shown by their SMILES.

Format in all cases: cell-based
The subject of one assay is proMMP-1. In words: activation of proMMP-1 by plasmin in cultured dermal fibroblasts (western blot). The settings on record: 25 µg/mL; 2,5 µg/mL plasmin; Figure 1C-4. The protocol: (§1) • La Figure 1 représente la modulation de l'activation des proMMP-3 (Figures 1A et 1B) et proMMP-1 (Figure 1C) in vitro comme en culture par des extraits glycolipidiques du gluten de blé. • Figure 1A : 100 nM de proMMP-3 (Figure 1A-1) sont incubés avec 65 nM de plasmine en absence (Figure 1A-2) ou en présence de glycolipides (Figure 1A-3 et 4), à la concentration de 50µg/mL pour M1-Sucres (Figure 1A-3) et 25 µg/mL pour ED 23-11 (Figure 1A-4). • Figure 1B : des fibroblastes dermiques sont ensemencés en plaque 24 puits à raison de […] cellules par puits jusque confluence. Après une mise au repos de 18 heures, les cellules sont incubées en présence (Figure 1B-2, 3 et 4) ou non (Figure 1B-1) de 2,5 µg/mL de plasmine ainsi que des glycolipides M1(-Sucres) (Figure 1B-3) et ED 23-11 (Figure 1B-4) aux mêmes concentrations que précédemment. • Figure 1C : des fibroblastes dermiques sont ensemencés en plaque 24 puits à raison de […] cellules par puits jusque confluence. Après une mise au repos de 18 heures, les cellules sont incubées en présence (Figure 1C-2, 3 et 4) ou non (Figure 1C-1) de 2,5 µg/mL de plasmine ainsi que des glycolipides M1(-Sucres) (Figure 1C-3) et ED 23-11 (Figure 1C-4) aux mêmes concentrations que précédemment. Dans l'ensemble des figures 1A, 1B et 1C, la réaction est arrêtée aux temps indiqués par addition de 0,3 mg/ml d'aprotinine. […]
A general note: In western blotting, separated proteins are transferred to a membrane and probed.

Another assay concerns proMMP-3. In words: activation of proMMP-3 by plasmin in cultured dermal fibroblasts (western blot). The settings on record: 25 µg/mL; 2,5 µg/mL plasmin; Figure 1B-4. The protocol:
as §1

Assay [1] relates to kératinocytes et fibroblastes dermiques. In words: degradation of a fluorescein-labelled type I collagen layer in a UV-A skin photo-ageing co-culture model. As to conditions: 10 J.cm^-2 UV-A, 15 µg/mL plasminogen, 48 h, versus control without active, read-out: inhibition de ce "vieillissement cutané" (dégradation du tapis de collagène).
A further assay concerns TIMP-1. Kind of assay: TIMP-1 secretion by dermal fibroblasts (reverse zymography). An excerpt:
Les effets de ces composés et fractions ont été étudiés sur la sécrétion de TIMP-1 par des fibroblastes dermiques en culture. L'analyse de la quantité de TIMP-1 produite est effectuée par une technique de zymographie inverse (Biotechniques. 2005 Jan;38(1):73-83. Zymographic techniques for the analysis of matrix metalloproteinases and their inhibitors. Snoek-van Beurden PA, Von den Hoff JW). Les résultats présentés sont exprimés en pourcentage par rapport au témoin sans effecteur.

As for `CCCCC/C=C\C/C=C\CCCCCCCCOC[C@H](CO[C@@H]1O[C@H](COC(=O)CCCCCCCCCCCCCCC)[C@H](O)[C@H](O)[C@H]1O)OCCCCCCCC/C=C\C/C=C\CCCCC` [ED23-11, 1,2-di-O-linoléyl-3-O-[6'-O-palmitoyl-β-D-galactopyranosyl]-sn-glycérol], in the assay on proMMP-1, the “activation de la proMMP-1” value was “inhibition significative”. The “activation de la proMMP-3” value with proMMP-3 is “inhibition significative”. In addition, the inhibition (as a rule, the relative decrease from the control value, in per cent) at 25 µg/mL in assay [1] was found to be 70%. For the same compound, the “sécrétion de TIMP-1, pourcentage par rapport au témoin sans effecteur” value was 102% with TIMP-1 (5 ng/mL); 104% with TIMP-1 (25 ng/mL); 98% in the assay on TIMP-1 (50 ng/mL); 101% in the assay with TIMP-1 (100 ng/mL); 106% in the assay on TIMP-1 (200 ng/mL). In addition, the “surexpression du TIMP-1” value in the assay with TIMP-1 (over the tested concentration range, result in words) was “pas”.
